Values quoted from earlier work as cited in patent US10206404B2, “Disinfectant” (Saban Ventures Pty Limited, priority 2012, dated 2019).

Conditions: unbuffered peroxyacetic acid, regardless of how it is produced

## CC(=O)OO [peroxyacetic acid]
  pH: around 2.8
